# Test results from patent publication US9164084B2, “Methods for determining aggressiveness of a cancer and treatment thereof” (Purdue Research Foundation, priority 2012, dated 2015).
# Entries after “also recorded” stand apart in the source; their conditions may differ.
# Legend:
# [1] = system: LNCaP-HP cells; test: Spectroscopic (SRL) imaging and Raman spectral analysis of lipid droplets in LNCaP-HP cells; format: cell-based, human; conditions: for cholesteryl ester accumulation: ACAT inhibitor treatment
# Method: The LNCaP-HP cells were treated with an ACAT inhibitor, avasimibe (structure shown in FIG. 13, Panel D), at 10 μM for 2 days.
# (§1) A broad spectrum of human prostate epithelial cells has been examined. […] Loss of the tumor suppressor PTEN has been widely observed in both localized and metastatic prostate cancer and correlated with high Gleason grade. With loss of PTEN, PI3K signaling is hyper-activated, which, in turn, leads to AKT activation. […] AKT mediates the phosphorylation and activation of mTOR complex 1 (mTORC1) which plays critical roles in the regulation of protein and lipid biosynthesis. To determine whether the PI3K/AKT/mTOR pathway regulates cholesteryl ester accumulation, both types of cholesteryl ester rich cell lines, PC-3 and high passage LNCaP (LNCaP-HP), were treated with LY294002 (PI3K inhibitor), MK2206 (AKT inhibitor), and Rapamycin (mTOR inhibitor), respectively.
# (§2) It is well known that LDL enters a cell via LDL receptor (LDLr) and traffics to the late endosome and lysosome where it is hydrolyzed to free fatty acids and free cholesterol. The excess free cholesterol together with the fatty acyl CoA substrate is then converted to cholesteryl ester by Acyl coenzyme A: cholesterol acyltransferase (ACAT) and stored in lipid droplets. Thus, cells were separately treated with Avasimibe and Sandoz 58-035, two different ACAT inhibitors. […] The significant reduction of cholesteryl ester accumulation upon Avasimibe treatment was further confirmed by an independent biochemical assay of cell lysates.
# [2] = system: PC-3 cells; test: Spectroscopic imaging and Raman spectral analysis of lipid droplets in PC-3 cells; format: cell-based, human; conditions: for cholesteryl ester accumulation: ACAT inhibitor treatment
# Text: as §1
# (§3) Because cholesterol can be either de novo synthesized via the mevalonate pathway or taken up from exogenous lipoproteins, the source of cholesterol used for cholesteryl ester accumulation was investigated. PC-3 cell were first treated with Simvastatin, an inhibitor of 3-hydroxy-3-methylglutaryl coenzyme A HMG-CoA reductase, the rate-limiting enzyme of the mevalonate pathway. […] In contrast, after treating cells with lipoprotein-deficient serum (LPDS), lipid droplets nearly disappeared in cholesteryl ester rich PC-3 and LNCaP-HP cells (FIG. 29, Panel A), but remained the same amount in cholesteryl ester poor cells including LNCaP-LP, DU145, and C4-2. Re-addition of low-density lipoprotein (LDL) into the LPDS medium restored lipid droplets and cholesteryl ester in both PC-3 and LNCaP-HP cells (FIG. 29, Panel B).
# as §2
# [3] = system: PANC-1 cells; test: CRS microscopy and Raman spectroscopy of cholesteryl ester in PANC-1 cells; format: cell-based; conditions: 7.5 μM for 24 h (FIG. 48)
# Text: (§4) Coherent Raman scattering (CRS) microscopy is a label-free imaging technique that is highly sensitive to C—H bond abundant structures such as membranes and lipid droplets. By matching the C—H bond stretching vibration mode at 2850 cm^−1, lipid distribution was imaged in human pancreatic cancer (n=10) and normal tissues (n=10) provided by IU School of Medicine. A remarkable amount of lipid droplets in all pancreatic cancer tissues was observed (FIG. 47, Panel B). […] Furthermore, by coupling a spectrometer to the CRS microscope, the devices was able to dissect the composition of individual lipid droplets through confocal Raman spectral analysis. […] Using emulsified mixtures of cholesteryl oleate and glyceryl trioleate (Sigma), it was verified that height ratio of the Raman peak at 702 cm^−1 the Raman peak at 1442 cm^−1 (CH^2 bending vibration mode) is linearly proportional to molar percentage of cholesteryl ester (FIG. 47, Panel D) out of the total neutral lipids. Based on this calibration curve, it was concluded that over 80% of neutral lipids in human pancreatic cancer tissues are cholesteryl ester. In order to understand how lipids accumulate in pancreatic cancer, several in vitro studies using two common pancreatic cancer cell lines, BxPC3 and PANC-1 were performed. […]
# [4] = system: PC-3 xenografts; test: Mice bearing PC-3 xenografts treated with Avasimibe; format: in vivo
# Method: To test the potential of using Avasimibe to treat advanced PCa in vivo, Avasimibe (15 mg/kg body weight by i.p. injection) was administered to the mice bearing PC-3 xenografts. Daily treatment of mice with the Avasimibe inhibited the growth of PC-3 tumors by ˜2 folds (FIG. 33), and induced ˜40% reduction in tumor weight by the end of 30-day treatment (FIG. 34).
# [5] = system: normal prostate RWPE1 cell; test: Toxic effect on normal prostate RWPE1 cell; format: cell-based; conditions: at the same doses
# [6] = system: PC-3 cells; test: Cell growth / viable cell number of PC-3 cells; format: cell-based, human
# Method: (§5) Because cholesteryl ester accumulation was found in PCa but not in normal prostate, how cell viability could be affected by regulating cholesteryl ester levels with the ACAT inhibitor Avasimibe was evaluated. […] The inhibitory effect of Avasimibe on the growth of PC-3 and LNCaP-HP cells was considerably greater than that in cholesteryl ester poor cancer cells including LNCaP-LP, DU145, and C4-2.
# [7] = system: LNCaP-HP cells; test: Immunoblotting of SREBP and LDLr in LNCaP-HP cells; format: cell-based, human
# Text: (§6) Finally, it was investigated whether Avasimibe-mediated suppression of tumor growth is associated with the regulation of cholesterol metabolism machinery. It was hypothesized that abrogating ACAT activity would up-regulate cellular level of free cholesterol and then down-regulate SREBP and LDLr in PCa cells (FIG. 40). […] To provide an explanation for enhanced uptake of LDL and then storage of excess cholesterol in the form of cholesteryl ester in aggressive prostate cancer, it was noticed that LDL is the primary carrier of essential polyunsaturated fatty acid including arachidonic acid (AA). Inside cells, AA is converted to a wide range of eicosanoids, which have been implicated in various pathological processes such as inflammation and cancer.
# [8] = system: LNCaP-HP cells; test: Cell growth / viable cell number of LNCaP-HP cells; format: cell-based, human; conditions: for proliferation (growth) rate, MTT assay: treatment started at day 1 (FIG. 14)
# Method: To study the impact of cholesteryl ester storage on tumor growth, the growth rate of LNCaP-HP and LNCaP-LP cells were measured using MTT assay (a colorimetric assay for measuring number of cells present, where the color is proportional to the number of cells).
# as §5
# [9] = system: BxPC3 cells; test: Cell viability (ATP level) of BxPC3 cells; format: cell-based; conditions: 7.5 μM for various periods
# Method: (§7) The cells were treated with […] (control) or 7.5 μM avasimibe for various periods. Then cells were lysed and ATP level were quantified to determine the number of viable cells.
# (§8) As the ACAT-1 inhibitor, avasimibe, effectively removed lipid droplet or cholesteryl ester accumulation in pancreatic cancer cells, the use of avasimibe as a chemotherapy agent for pancreatic cancer was explored. The effects of avasimibe on cell viability in BxPC3 and PANC-1 cells were examined.
# [10] = system: LNCaP-HP cells; test: Cellular uptake of DiI-labeled LDL in LNCaP-HP cells; format: cell-based, human; conditions: 2-day treatment
# Text: as §6
# [11] = system: PC-3 cells; test: Cellular uptake of DiI-labeled LDL in PC-3 cells; format: cell-based, human; conditions: PC-3, 2-day treatment
# Text: as §3
# Finally, it was investigated whether Avasimibe-mediated suppression of tumor growth is associated with the regulation of cholesterol metabolism machinery. It was hypothesized that abrogating ACAT activity would up-regulate cellular level of free cholesterol and then down-regulate SREBP and LDLr in PCa cells (FIG. 40). […]
# [12] = system: PC-3 cells; test: Immunoblotting of SREBP and LDLr in PC-3 cells; format: cell-based, human
# Text: It has been shown that mTOR plays a key role in regulating the function of sterol regulatory element-binding proteins (SREBPs) which control lipid and cholesterol homeostasis. Specifically, when cellular sterol levels decrease, SREBP-1a and/or -2 precursors are cleaved to activate the expression of genes involved in de novo cholesterol synthesis and LDL-cholesterol uptake. […] Similar results for on LNCaP-HP cells were obtained.
# as §6
# [13] = system: BxPC3 cells; test: CRS microscopy of lipid droplets in BxPC3 cells; format: cell-based; conditions: 7.5 μM for 24 h (FIG. 48)
# Text: as §4
# [14] = system: PC-3 cells; test: Standard biochemical assay of CE and free cholesterol in PC-3; format: cell-based, human; conditions: PC-3, 2-day treatment
# Text: as §2, §6
# [15] = system: PC-3 cells; test: LC-MS of arachidonic acid (AA) in PC-3 cell lysates; format: cell-based, human
# Text: as §6
# [16] = system: PANC-1 cells; test: Cell viability (ATP level) of PANC-1 cells; format: cell-based; conditions: 7.5 μM for various periods
# Method: as §7, §8
# [17] = system: PC-3 cells; test: Flow cytometry analysis of cell cycle and apoptosis in PC-3 cells; format: cell-based, human
# [18] = system: pancreatic cancer cells (BxPC3 and PANC-1); test: Western blot of pancreatic cancer cells before and after avasimibe treatment; format: cell-based; conditions: pancreatic cancer cells (FIG. 49)
# Method: In order to understand how lipids accumulate in pancreatic cancer, several in vitro studies using two common pancreatic cancer cell lines, BxPC3 and PANC-1 were performed. Since ACAT is the enzyme responsible for the conversion from cholesterol to cholesteryl ester the effects of inhibiting ACAT-1, the universally expressed isoform, on lipid metabolism in pancreatic cancer cells were first examined. […] To explore the molecular mechanism, western blot of the cells before and after avasimibe treatment were performed.
structure (smiles),measurement,setting,value
CCCCCCCCCC[Si](C)(C)CCC(=O)NC(Cc1ccc(C)cc1)c1ccccc1 (centres unmarked) [Sandoz 58-035],lipid droplet amount,[1],remaining unchanged
same,cholesteryl ester accumulation,[1],effectively suppressed cholesteryl ester accumulation
same,lipid droplet amount,[2],remaining unchanged
same,cholesteryl ester accumulation,[2],effectively suppressed cholesteryl ester accumulation
"CC(C)c1cc(C(C)C)c(CC(=O)NS(=O)(=O)Oc2c(C(C)C)cccc2C(C)C)c(C(C)C)c1 [Avasimibe, avasimibe]",cholesteryl ester accumulation,[3],blocked cholesteryl ester accumulation
same,cholesteryl ester accumulation,[3]; listed as avasimibe,eliminated cholesteryl ester; also recorded: blocked cholesteryl ester accumulation
same,increase of apoptosis (TUNEL IHC),[4]; PC-3 tumor,~2 folds
same,reduction of proliferation (Ki67 IHC),[4]; PC-3 tumor,~70%
same,cholesteryl ester content in PC-3 tumor (spectroscopic imaging of extracted tissues),[4]; compared to vehicle-treated,significantly dropped
same,tumor size compared to controls,[4]; mice (FIG. 33),decreased tumor size
same,body weight over the course of treatment,[4]; mice (FIG. 36),remained steady
same,"pathological review of heart, kidney, liver, lung, and spleen",[4]; mice receiving Avasimibe,no signs of toxicity
same,appearance of harvested tumors,"[4]; mice, 15 mg/kg i.p. daily",less bloody in appearance
same,reduction in tumor weight,"[4]; mice, 15 mg/kg i.p. daily, end of 30-day treatment",~40%
same,inhibition of growth of PC-3 tumors,"[4]; mice, 15 mg/kg i.p., daily treatment",~2 folds
same,"general toxicity (animal behavior, body weight)","[4]; mouse, in vivo, ip, 15 mg/kg",did not cause general toxicity
same,toxic effect on normal prostate cell,[5],no toxic effect
same,lipid droplet amount,[1],remaining unchanged
same,accumulation of cholesteryl ester in lipid droplets (702 cm^-1 Raman peak),[1]; 10 μM for 2 days,completely blocked the accumulation of CHOLESTERYL ESTER
same,cell morphology,[1]; 10 μM for 2 days,reversed the cell morphology to that of LNCaP-LP cells
same,cholesteryl ester accumulation,[1],effectively suppressed cholesteryl ester accumulation
same,IC50,"[6]; Homo sapiens, 72 h, PC-3 cell, 3 days",7.32 µM
same,cytotoxicity at 7.5 µM,"[6]; Homo sapiens, 72 h, PC-3 cells, 3 days of 7.5 μM, read-out: reduction in viable cell number",~48%
same,proliferation (viable cell number),[6]; PC-3 cells (FIG. 31),significantly hampered the proliferation
same,LDLr level (immunoblot),[7],down-regulation
same,SREBP-2 level (immunoblot),[7],down-regulation
same,IC50,"[8]; Homo sapiens, 72 h, LNCaP-HP cell, 3 days",9.64 µM
same,cytotoxicity at 7.5 µM,"[8]; Homo sapiens, 72 h, LNCaP-HP cells, 3 days of 7.5 μM, read-out: reduction in viable cell number",~55%
same,proliferation (viable cell number),[8]; LNCaP-HP cells (FIG. 31),significantly hampered the proliferation
same,"proliferation (growth) rate, MTT assay",[8]; LNCaP-HP cells,significantly slowed down the proliferate rate
same,"proliferation (growth) rate, MTT assay","[8]; LNCaP-HP cells, listed as avasimide",significantly reduced growth rate
same,cell viability (ATP level),[9],significantly reduced cell viability
same,cell viability (ATP level),[9]; listed as avasimibe,significantly reduced the viability; also recorded: dramatically reduced the cell viability
same,uptake of DiI-labeled LDL,[10],drastically inhibited LDL uptake
same,uptake of DiI-labeled LDL,[11],drastically inhibited LDL uptake
same,lipid droplet amount,[2],remaining unchanged
same,cholesteryl ester accumulation,[2],effectively suppressed cholesteryl ester accumulation
same,LDLr level (immunoblot),[12],down-regulation
same,SREBP-1 level (immunoblot),[12],down-regulation
same,lipid droplet amount,[13],reduced lipid droplet amount
same,lipid droplet amount,[13]; listed as avasimibe,reduced the lipid droplet amount; also recorded: significantly reduced the amount of lipid droplets
same,level of CE,[14],reduced the level of CE
same,level of free cholesterol,[14],slightly increased the level of free cholesterol
same,level of AA (arachidonic acid),[15],significantly reduced the level of AA
same,cell viability (ATP level),[16],significantly reduced cell viability
same,cell viability (ATP level),[16]; listed as avasimibe,significantly reduced the viability; also recorded: dramatically reduced the cell viability
same,G2/M phase population compared to control group,[17],2 times smaller
same,sub G0/G1 population compared to control group,[17],~3 times larger
same,HMGCoA reductase level (western blot),[18],significantly reduced the level of HMGCoA reductase
same,HMGCoA reductase level (western blot),[18]; listed as avasimibe,reduced the expression of HMGCoA reductase
same,LDL receptor level (western blot),[18]; listed as avasimibe,not affected
NC1(c2ccc(-c3nc4ccn5c(=O)[nH]nc5c4cc3-c3ccccc3)cc2)CCC1 [MK2206],autofluorescent granules indicative of autophagy,[1],induced massive accumulation of autofluorescent granules
same,lipid droplet amount,[1],radically removed lipid droplets
same,autofluorescent granules indicative of autophagy,[2],induced massive accumulation of autofluorescent granules
same,lipid droplet amount,[2],radically removed lipid droplets
"CCCCC/C=C\C/C=C\C/C=C\C/C=C\CCCC(=O)O [AA, arachidonic acid]",growth of PC-3 cells,[6]; added LDL or AA (FIG. 46),promoted the growth of PC-3 cells in a dose-dependent manner
